In one experiment the target is T1, human 5HT2C receptor (Homo sapiens, UniProt P28335).
T1 construct: expressed in transfected cells; host or cells: HEK293
T1 sequence (P28335 33-458): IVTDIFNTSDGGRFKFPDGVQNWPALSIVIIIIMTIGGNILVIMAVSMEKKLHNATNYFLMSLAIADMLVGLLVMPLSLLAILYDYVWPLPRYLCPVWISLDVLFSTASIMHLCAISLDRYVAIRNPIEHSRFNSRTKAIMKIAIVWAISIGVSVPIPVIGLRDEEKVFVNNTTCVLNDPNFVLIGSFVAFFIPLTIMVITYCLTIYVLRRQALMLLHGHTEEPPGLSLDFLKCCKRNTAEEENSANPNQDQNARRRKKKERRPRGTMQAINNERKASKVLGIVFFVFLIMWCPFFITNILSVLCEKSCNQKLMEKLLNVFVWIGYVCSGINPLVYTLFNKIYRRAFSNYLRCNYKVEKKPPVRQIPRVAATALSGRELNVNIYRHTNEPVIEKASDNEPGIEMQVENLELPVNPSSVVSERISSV
In words: Intracellular IP3 accumulation assay (IP Accumulation Assay). It counts as cell-based. The settings on record: HEK293 cells transfected with human 5HT2C receptor cDNA. As to the method: HEK293 cells were transfected in 15 cm sterile dishes with or without (control) 16 ug of human 5HT2C receptor cDNA [for example see, Saltzman, A. G., et al. Biochem. Biophys. Res. Commun. 181, 1469-1478 (1991)] using 25 ul of lipofectamine. Cells were then incubated for 3-4 hours at 37° C./5% CO2 and then transfection media was removed and replaced with 100 ul of DMEM. Cells were then plated onto 100 cm sterile dishes. The next day cells were plated into 96 well PDL microtiter plates at a density of 55K/0.2 ml. Six hours latter, media was exchanged with [^3H]inositol (0.25 uCi/well) in inositol free DMEM and plates were incubated at 37° C./5% CO2 overnight. The next day, wells were aspirated and 200 ul of DMEM containing test compound, 10 uM pargyline, and 10 mM LiCl was added to appropriate wells. Plates were then incubated at 37° C./5% CO2 for three hours followed aspiration and by addition of fresh ice cold stop solution (1M KOH, 19 mM Na-borate, 3.8 mM EDTA) to each well. Plates were kept on ice for 5-10 min and the wells were neutralized by addition of 200 ul of fresh ice cold neutralization solution (7.5% HCl). Plates were then frozen until further processing is desired. The lysate was then transferred into 1.5 ml Eppendorf tubes and 1 ml of chloroform/methanol (1:2) was added/tube. […]

The next experiment deals with 5HT2A receptor (Homo sapiens, UniProt P28223). The experiment can be described thus: EC50 against the 5HT2A receptor (selectivity). It is filed as cell-based.
Chain of 5HT2A receptor (P28223 whole entry): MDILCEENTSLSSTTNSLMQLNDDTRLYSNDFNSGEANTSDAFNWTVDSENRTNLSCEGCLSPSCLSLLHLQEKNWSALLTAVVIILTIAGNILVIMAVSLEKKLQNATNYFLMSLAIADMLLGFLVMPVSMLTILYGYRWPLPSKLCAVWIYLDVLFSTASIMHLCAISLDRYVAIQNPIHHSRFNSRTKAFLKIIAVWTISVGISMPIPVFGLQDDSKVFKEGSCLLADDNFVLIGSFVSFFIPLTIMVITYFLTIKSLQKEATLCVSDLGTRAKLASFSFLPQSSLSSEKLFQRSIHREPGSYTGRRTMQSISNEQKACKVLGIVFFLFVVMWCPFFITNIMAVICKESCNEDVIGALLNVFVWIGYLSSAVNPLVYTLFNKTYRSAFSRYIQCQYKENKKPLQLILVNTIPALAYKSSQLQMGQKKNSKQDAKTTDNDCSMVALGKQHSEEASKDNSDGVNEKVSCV
In another experiment the target is 5HT2B receptor (Homo sapiens, UniProt P41595). In words: Activity against the 5HT2B receptor (selectivity). It is filed as cell-based.
Chain of 5HT2B receptor (P41595 whole entry): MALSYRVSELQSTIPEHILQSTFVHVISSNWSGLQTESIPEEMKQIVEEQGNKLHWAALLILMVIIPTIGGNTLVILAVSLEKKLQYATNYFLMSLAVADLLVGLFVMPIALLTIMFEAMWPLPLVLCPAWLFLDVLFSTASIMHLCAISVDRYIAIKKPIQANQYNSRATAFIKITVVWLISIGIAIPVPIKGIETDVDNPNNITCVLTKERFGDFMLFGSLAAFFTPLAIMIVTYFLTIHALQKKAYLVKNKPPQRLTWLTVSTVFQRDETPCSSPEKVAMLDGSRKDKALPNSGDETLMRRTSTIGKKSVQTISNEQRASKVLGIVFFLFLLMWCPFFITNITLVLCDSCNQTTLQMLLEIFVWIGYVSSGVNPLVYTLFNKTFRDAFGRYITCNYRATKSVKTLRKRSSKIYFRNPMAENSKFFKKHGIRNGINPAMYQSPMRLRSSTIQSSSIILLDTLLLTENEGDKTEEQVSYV
The subject of the next experiment is basal food intake. In words: Inhibition of basal food intake in rats. It is filed as in vivo, Male Sprague-Dawley rats. As to conditions: p.o.; for ED50: Rattus norvegicus, po. The procedure: Male Sprague-Dawley rats (225-325 g) were accustomed to a reverse day/night schedule (lights on 6:30 pm to 10:30 am) for at least 10 days prior to testing. On the test day, the animals were weighed and placed into individual cages (no bedding) at 9:00 am with free access to water. At 10:00 am, animals were injected with test compound or vehicle (2 ml/kg, p.o.), with treatment groups counter-balanced according to animal weights. Immediately upon lights out at 10:30 am, each animal was presented with a pre-weighed amount of food in a dish. Food consumption over different time points was then determined by weighing the food cup at 2, 4, 6 and 22 hrs after the food was presented. Thus, food consumption was measured at 2.5, 4.5, 6.5, and 22.5 hrs post-injection.

As usually defined, the EC50 is the concentration at which the effect is half-maximal. By ED50 is commonly meant the dose that gives a 50% effect, or the effect in half of the subjects.

Structures are written as SMILES.

Consider `C[C@@H]1CNCCN1c1cccc(Cl)c1F` [Compound 23, (R)-1-(3-Chloro-2-fluoro-phenyl)-2-methyl-piperazine], for which the 50% effective concentration (EC50) on human 5HT2C receptor worked out at 7.4 nM; on 5HT2A receptor, 44 nM. The “activity against the 5HT2B receptor” value on 5HT2B receptor was “essentially inactive”.

Regarding `C[C@@H]1CNCCN1c1cc(Cl)ccc1F` [Compound 44, (R)-1-(5-Chloro-2-fluoro-phenyl)-2-methyl-piperazine], the values for the EC50 on human 5HT2C receptor and at 5HT2A receptor were 8 nM and 529 nM, respectively. The “activity against the 5HT2B receptor” value at 5HT2B receptor was “essentially inactive”. Further, the ED50 in the experiment on basal food intake (2 h, 2 hours after food presentation) is 33 µmol/kg; in the experiment with basal food intake (4 h, 4 hours after food presentation), 58 µmol/kg; with basal food intake (6 h, 6 hours after food presentation), 97 µmol/kg; in the experiment on basal food intake (22 h, 22 hours after food presentation), 441 µmol/kg. Besides, in the experiment on basal food intake (all doses, first 4 hr after food presentation), the “effect on food intake relative to vehicle-treated controls” value is “inhibited food intake relative to vehicle-treated controls”. Also, in the experiment with basal food intake (highest dose tested), the “duration of food intake inhibition” value was “maintained to 22 hrs after food presentation”.

Source of the values: patent US20070179155A1, “N-phenyl-piperazine derivatives and methods of prophylaxis or treatment of 5ht2c receptor associated diseases” (priority 2003, published 2007).
